In general, EC50 refers to the midpoint of the concentration-response curve.

Data on two molecules can be found in patent US5776957A, “Nornicotine enantiomers for use as a treatment for dopamine related conditions and disease states” (The University of Kentucky Research Foundation, priority 1996, dated 1998).

The subject of data set [1] is [3H]DA-preloaded rat striatal slices (nicotinic receptors). Conditions: cited from earlier work.
Data set [2] is described as follows: drug self-administration paradigm. As to conditions: rats.
Data set [3] in a line: NIC and metabolites in rat brain after s.c. injection of radiolabelled NIC. Format: in vivo. An excerpt:
NIC metabolism studies involving HPLRC analysis invariably utilize NIC with a radiolabel (i.e., [^3 H], [^14 C] or [^11 C]) incorporated in the methyl group. However N-demethylated NIC metabolites (norNIC and norCOT) cannot be detected after injection of such radionuclides, since the label is lost in the formation of these metabolites. NIC and four NIC metabolites have recently been detected in rat brain 4 hr after s.c. injection of [2'-^14 C]NIC (FIG. 3, Table I). Three of these metabolites have been identified as COT, norNIC and norCOT. A fourth minor metabolite (Peak B) has not been completely identified but appears to be an N-demethylated metabolite, since it is not detected in the [^3 H-N-methyl]NIC studies.
COT, and therefore, is unlikely to originate from COT N-demethylation. 3-HydroxyCOT and its glucuronide conjugate were not detected as metabolites of either NIC or COT in brain, even though these are major biotransformation products in the periphery (Crooks, 1993).
It appears that NIC metabolites which accumulate with a time course that correlates with the development of behavioral sensitization to NIC have a role in eliciting sensitization to NIC. The inventors have detected NIC, COT, norNIC and norCOT in brain 4 hr following acute s.c. injection of (±)[2'-^14 C]NIC. S(-) [^3 H] -N-methyl]NIC is unsuitable for studying brain metabolism of NIC, since nor-metabolites (i.e., demethylated metabolites) cannot be detected due to [^3 H]-loss during metabolism (Crooks et al., 1995b, AP 7). Thus, commercially available (±)[2'-^14 C]NIC was used to determine NIC metabolites present in brain. This form of radiolabelled NIC provides a metabolically stable [^14 C]-label which allows measurement of all potential NIC metabolites.
A second "metabolite" (Peak A, FIG. 2) was also detected at each time point and most likely results from a combination of metabolic cleavage of the N-methyl group and dissociated-[^3 H], i e, Peak A represents an oxidized 1-carbon unit and indicates the extent of NIC N-demethylation. Note, in our subsequent studies with [2'-^14 C]NIC, Peak A was not observed, which is consistent with our interpretation of the results (Table 1).

The nature of data set [4]: Amphetamine drug discrimination (substitution tests). Conditions: for amphetamine-correct responding reached by individual rats: any dose, none of the rats reached; for amphetamine-appropriate responding (partial substitution): nicotine 0.1-1.0 mg/kg, nornicotine 1-10 mg/kg; for relative potency, nicotine vs nornicotine: partial substitution for amphetamine. Type of data set: in vivo, rat. As for the experimental part: Rats were trained in on two-lever food-reinforced operant tasks to discriminate amphetamine (1 mg/kg) from saline. After discrimination training stabilized, test doses of amphetamine (0.0625-2.0 mg/kg), nicotine (0.1-1.0 mg/kg) or nornicotine (1-10 mg/kg) were assessed for their ability to substitute for the amphetamine training dose during brief test sessions in which food reinforcement was withheld.
Nine male Sprague-Hawley rats were obtained from Harlan Industries (Indianapolis, Ind.) and were caged individually with water continuously available. Food access was restricted in order to maintain body weights at approximately 80% of free-feeding weight. Prior to the start of the experiment, all rats received a single injection of amphetamine (1 mg.kg, IP) as part of an unrelated experiment. Apparatus Six operant chambers (ENV-001, Med Associates, St. Albans, Vt.) enclosed in a sound attenuating environment were used. Located in the bottom center of the front panel in each chamber was a 5×4.-cm opening to a recessed food tray. Two metal response levers were located on the front panel, one on each side of the food tray. The center of each lever was mounted 7.3 cm from the grid floor. A 28-Vcue light, 3 cm in diameter, was centered 6 cm above each lever. A personal computer, interfaced to the chamber with Med Associates equipment, controlled the experimental sessions and collected data.
The general procedures utilized to establish amphetamine discrimination were similar to those outlined previously (13). Briefly, rats were first given access to food pellets (45 mg sucrose pellet, Noyes Co., Lancaster, N.H.) dispensed noncontingently into the food tray with both levers present. One lever was then removed and the rat was shaped to depress the other lever for food reinforcement. Following this, rats received 15-min daily sessions in which the lever (left or right) available for food reinforcement was alternated daily. […] The start of each session was signaled by the onset of both cue lights mounted above the levers, and the termination of each session was signaled by the offset of these lights. This training phase was continued until the rat earned 20 reinforces on an FR25 schedule for two days.
Amphetamine discrimination training was conducted Monday through Friday. For this training, both levers were mounted in the chamber. Amphetamine (A; 1 mg/kg) or saline (S), was injected IP 15 min prior to the start of the session, with the order of injections being either AASS or SSAA. The left lever was designated as the amphetamine-correct lever for 4 rats, while the right lever was amphetamine -correct for 5 rats. On Monday, Wednesday and Friday, injection-appropriate responding was food-reinforcedon an FR25 schedule for the entire 15-min session. However, 2-min extinction periods were instituted at the beginning of sessions on Tuesday and Thursday (one amphetamine and one saline test per week) to assess the control of amphetamine (or saline) over responding. […] During the remaining 13 min of these sessions, contingent reinforcement for injection-appropriate responding was reinstated. This phase of training was continued until the rat completed the first FR25 on the correct lever for 10 consecutive sessions and also completed 80% or more responses on the injection-appropriate lever during 4 consecutive extinction periods.
The substitution phase was identical to the previously described amphetamine discrimination phase, except for the Friday session, which was decreased to a 4-min extinction session with no food available.

The conditions of data set [5]: cited from earlier work.

“Also recorded” adds a separate entry of the source.

As for `c1cncc([C@@H]2CCCN2)c1` [S(-) nornicotine, S-(-) nornicotine], in data set [1] (Teng et al., 1996), the “antagonist sensitivity of effects” value is “inhibited by mecamylamine and DHβE”. The “self-administration / substitution for amphetamine” value (“self-administration / substitution” for short) in data set [2] (listed as S-(-)-nornicotine) is recorded as “self-administered; also recorded: substitutes for amphetamine self administration”. In data set [2] (listed as norNIC), the “self-administration / substitution” value is “reinforcing”. Also, the “presence as metabolite in brain” value in data set [3] (rat brain, after s.c. radiolabelled NIC) is “present in significant amounts in brain”. For the same molecule, the “total number of lever presses” value in data set [4] (15 min) is “significant decreases in total number of lever presses”. Moreover, in data set [4] (45 min), the “plateau of dose-effect curve, amphetamine-appropriate responding” value is 50 and the “total number of lever presses” value is on record as “significant decrease in total number of lever presses”. Also, in data set [4], the “amphetamine-correct responding reached by individual rats” value is under 80%; the “amphetamine-appropriate responding (partial substitution)” value is listed as “approximately 50%”; the “relative potency, nicotine vs nornicotine” value is reported as “less potent than nicotine”. For the same molecule, in data set [4] (nornicotine 3 mg/kg, 15 min), the amphetamine-appropriate responding result is recorded as “Approximately 50%”. In data set [4] (nornicotine 10 mg/kg, 45 min), the “amphetamine-appropriate responding (maximum)” value is “approximately 50%” and the “amphetamine-correct responses, individual rats” value is recorded as 33-61%. The “behavioral profile in drug discrimination” value in data set [4] (rat, in vivo) was “behavioral profile similar to nicotine”. Moreover, in data set [5] (behavioral sensitization), the “potency relative to nicotine” value was “less potent than nicotine”.

For `CN1CCC[C@H]1c1cccnc1` [S(-) nicotine], the “plateau concentration of concentration-response curve” value in data set [1] (Izenwasser et al. (1991), 10-min exposure) was 0.1 µM. The EC50 in data set [1] (rat striatal slices, Sacaan et al. (1995), read-out: EC50 for NIC-evoked [3H]overflow) was 3.7 µM. The “self-administration / substitution” value in data set [2] is “responding was established and maintained”. Further, the “level in CNS at 4 hrs post-NIC-injection” value in data set [3] (4 hrs) is reported as “only low levels were detected”. In addition, in data set [3] (in vivo, rat brain, read-out: time of maximum uptake in brain), the Tmax was 30 to 60 min. The “total number of lever presses” value in data set [4] (15 min) was “significant decreases in total number of lever presses”. Further, in data set [4] (45 min), the “plateau of dose-effect curve, amphetamine-appropriate responding” value is recorded as 50 and the “total number of lever presses” value is “significant decrease in total number of lever presses”. Further, in data set [4], the “amphetamine-correct responding reached by individual rats” value is recorded as under 80%; the “amphetamine-appropriate responding (partial substitution)” value is listed as “approximately 50%”; the “relative potency, nicotine vs nornicotine” value is on record as “more potent than nornicotine”. Besides, the amphetamine-appropriate responding entry in data set [4] (nicotine 1 mg/kg, 15 min) was “Approximately 50%”. Besides, in data set [4] (nicotine 1 mg/kg, 45 min), the “amphetamine-appropriate responding (maximum)” value was “approximately 50%” and the “amphetamine-correct responses, individual rats” value is 31-59%. Further, the “cross-sensitization between nicotine and amphetamine” value in data set [5] is “has not been observed”.
